Measurements: article PMC9143221 (Pharmaceuticals, 2022)
In brackets after ≈: the same amount, converted by molar mass. Like-named read-outs stand apart in the source and are kept apart here. Bridge positions count the residues as written; N and C are the ends. Square brackets hold non-standard residues; d marks the D form. Ends that are not written are not given here. Peptide text beside a SMILES is read from it.

Assays:
[1] = test system: Klebsiella pneumoniae E406-17
pseudo-EBOV (VSV-eGP) [2] = format: cell-based, Ebola virus
SARS-CoV-2 WI = conditions: 2 h
[3] = test system: Vero cells (ATCC, CCL-81)
pseudo-EBOV (VSV-eGP) [4] = test system: pseudo-EBOV (VSV-eGP)
[5] = test system: Pseudomonas aeruginosa #2
[6] = test system: Acinetobacter baumannii B28-16
[7] = test system: all the tested antibiotic-resistant pathogens (e.g., MRSA, Escherichia coli, Pseudomonas aeruginosa, and Klebsiella pneumoniae)
[8] = test system: Staphylococcus epidermidis 1457
[9] = test system: Calu-3 (ATCC, HTB-55) cells; conditions: 48 h
human red blood cells = conditions: red cells of human
[10] = test system: HaCaT cells (human keratinocytes)
[11] = test system: BALB/c mouse red blood cells

Row | Compound | Minimum inhibitory concentration, Klebsiella pneumoniae E406-17 [1] [µM] | inhibition of VSV-eGP, treated immediately after infection (pseudo-EBOV (VSV-eGP) [2]) | Minimum inhibitory concentration, S. aureus USA300 (S. aureus USA300) [µM] | inhibition of SARS-CoV-2 (SARS-CoV-2 WI; 5 µM) [%] | inhibition of SARS-CoV-2 (SARS-CoV-2 WI; 10 µM) | Minimum inhibitory concentration, Pseudomonas aeruginosa #2 [5] [µM] | Minimum inhibitory concentration, Acinetobacter baumannii B28-16 [6] [µM] | Minimum inhibitory concentration, Staphylococcus epidermidis 1457 [8] [µM] | Minimum inhibitory concentration, Escherichia coli E416-7 (Escherichia coli E416-7) [µM] | hRBC HC50 (50% hemolytic concentration) (human red blood cells) | further results
1 | CC(C)C[C@@H](NC(=O)CN)C(=O)N[C@H](CCCNC(=N)N)C(=O)N[C@@H]1CSSC[C@H](C(=O)N[C@H](CC(C)C)C(=O)N[C@H](CC(C)C)C(=O)N[C@H](CCCNC(=N)N)C(=O)O)NC(=O)[C@@H](CCCNC(=N)N)NC(=O)CNC(=O)[C@@H](CC(C)C)NC(=O)[C@@H](CCCNC(=N)N)NC(=O)[C@@H](CCCNC(=N)N)NC(=O)[C@@H](CC(C)C)NC(=O)[C@@H](CC(C)C)NC(=O)[C@@H](CCCNC(=N)N)NC(=O)CNC(=O)[C@@H](CC(C)C)NC(=O)[C@@H](CCCNC(=N)N)NC1=O [DDIP1] (H-G[dL][dR][dC][dR][dL]G[dR][dL][dL][dR][dR][dL]G[dR][dC][dL][dL][dR]-OH; disulfide 4-16; N-terminus assumed) | 4 (≈ 9.12 µg/mL) | ~ 15% | 4 (≈ 9.12 µg/mL) | 42 | ~ 55% | 4 (≈ 9.12 µg/mL) | 2 to 4 | 4 to 8 | 2 (≈ 4.56 µg/mL) | – | Vero Cell TC50 [3]: 13.0 µM; inhibition against the virus (VSV-eGP) (pseudo-EBOV (VSV-eGP) [4]; 2 h, 2.5 µM): 7%; inhibition against the virus (VSV-eGP) (pseudo-EBOV (VSV-eGP) [4]; 2 h, 5 µM): 14%; MIC values against all the tested antibiotic-resistant pathogens [7]: 2 to 8 µM
2 | CC[C@H](C)[C@H](NC(=O)[C@H](CCCCN)NC(=O)[C@H](CCC(=O)O)NC(=O)[C@H](CCCCN)NC(=O)[C@H](CO)NC(=O)[C@H](CCCCN)NC(=O)[C@H](CCCNC(=N)N)NC(=O)[C@H](Cc1ccccc1)NC(=O)[C@H](Cc1ccccc1)NC(=O)[C@H](CC(=O)O)NC(=O)CNC(=O)[C@H](CC(C)C)NC(=O)[C@@H](N)CC(C)C)C(=O)NCC(=O)N[C@@H](CCCCN)C(=O)N[C@@H](CCC(=O)O)C(=O)N[C@@H](Cc1ccccc1)C(=O)N[C@@H](CCCCN)C(=O)N[C@@H](CCCNC(=N)N)C(=O)N[C@H](C(=O)N[C@H](C(=O)N[C@@H](CCC(N)=O)C(=O)N[C@@H](CCCNC(=N)N)C(=O)N[C@H](C(=O)N[C@@H](CCCCN)C(=O)N[C@@H](CC(=O)O)C(=O)N[C@@H](Cc1ccccc1)C(=O)N[C@@H](CC(C)C)C(=O)N[C@@H](CCCNC(=N)N)C(=O)N[C@@H](CC(N)=O)C(=O)N[C@@H](CC(C)C)C(=O)N[C@H](C(=O)N1CCC[C@H]1C(=O)N[C@@H](CCCNC(=N)N)C(=O)N[C@H](C(=O)N[C@@H](CCC(=O)O)C(=O)N[C@@H](CO)C(=O)O)[C@@H](C)O)C(C)C)[C@@H](C)CC)C(C)C)[C@@H](C)CC [LL-37, reference compound] | – | 9% | – | 18 | ~ 27% | – | – | – | – | – | inhibition of VSV-eGP (in words) (pseudo-EBOV (VSV-eGP) [4]): higher viral inhibition than DDIP1; Calu3 Cell TC50 [9]: 19.1 µM
3 | RWLRGLLSGLLR-NH2 [DFTavP3] | 8 | – | 4 | – | – | 4 to 8 | 4 | 8 | 2 to 4 | 50 µM | –
4 | RWLRGLLSGLLRRLLS-NH2 [DFTavP2] | 4 | – | 4 | – | – | 8 | 2 | 2 | 4 | below 12.5 µM | decrease in the viral inhibition compared to DFTavP1 (pseudo-EBOV (VSV-eGP) [4]; 2 h, 5 µM): 33%
5 | RWLRGLLSGLLRRLLSGLLL-NH2 [DFTavP1] | 16 to 32 | – | 8 to 16 | – | – | 32 | 8 | 8 to 16 | 16 | – | HaCaT TC50 (peptide concentration that killed 50% of human keratinocytes) [10]: 25 µM; hemolysis of murine red blood cells (in words) [11]: highly hemolytic; mRBC HC50 ([11]; red cells of mouse): <10 µM; higher inhibition than LL-37 (pseudo-EBOV (VSV-eGP) [4]; 2 h, 2.5 µM): 18%
6 | RWVRGVVSGVVRRVVS-NH2 [DFTavP4] | – | – | >64 | – | – | – | – | – | 16 | – | –
